Test results from patent publication US9518988B2, “Antibodies and methods of using same for treating ErbB/ErbB ligands associated diseases” (Yeda Research and Development Co. Ltd., priority 2010, dated 2016).

B1: HB-EGF: EGF-like domain of HB-EGF expressed in bacteria as thioredoxin (TRX) fusion protein, used as immunogen (protein)
chain: DLQEADLDLLRVTLSSKPQALATPNKEEHGKRKKKGKGLGKKRDPCLRKYKDFCIHGECKYVKELRAPSCICHPGYHGERCHGLSL

Experiments:
[1] = system: EGFR phosphorylation on tyrosine residues; assay: Biological activity of purified recombinant ligands: EGFR phosphorylation on tyrosine residues; assay type: cell-based; conditions: TRX-TGFα 2, 20, 200 ng/ml; TRX-HB-EGF 3, 30, 300 ng/ml; 10 minute incubation
Experimental: FIGS. 1A-E depict construction, expression and biological activity of recombinant EGF-like ligands and detection of TGFα blocking antibodies using a GPI-anchored TGFα. […] Residue numbers are indicated. […] Molecular weight markers are indicated in kilodaltons. […] Cells were seeded in a 24-well plate, washed and incubated with increasing concentrations of the purified fusion proteins (TRX-TGFα: 2, 20, 200 ng/ml; TRX-HB-EGF: 3, 30, 300 ng/ml). EGF (10 ng/ml) was used as a positive control. After 10 minute incubation, the cells were lysed, and cleared extracts were immunoblotted (IB) with an anti-phosphotyrosine (P-Tyr) antibody. […] Residue numbers refer to TGFα. Cysteine residues of the EGF-like domain are highlighted. […] Cells were seeded in a 24-well plate, washed and incubated with or without TGFα (5 ng/ml), and with increasing volumes of an anti-serum from TGFα-immunized mice (0.2, 2, 4, 6, 8 and 10 μl of serum diluted in 120 μl total; control: 10 μl serum from a naive animal). An anti-phosphotyrosine mAb was used to detect phosphorylated EGFR.
Cells were seeded in a 24-well plate. Twenty-four hours later, cells were washed and incubated with different agents. After ten minutes of incubation, the cells were lysed and cleared extracts were electrophoresed, then immunoblotted with an anti-phosphotyrosine mAb, an anti-EGFR mAb (HeLa) or with an anti-ErbB-3 mAb (T47D).

[2] = system: BxPC3 pancreatic tumor cells; assay: Cell proliferation assay (MTT), BxPC3; assay type: cell-based, human; conditions: gemcitabine 50 mg/ml
Experimental: (§1) FIGS. 4A-B depict effective inhibition of proliferation and tumorigenicity (in vitro and in vivo) of human pancreatic cancer cells by a combination of anti-TGFα and anti-HB-EGF mAbs. […] BxPC3 cells (2×10^4) were seeded in a 96-well plate and allowed to adhere overnight, prior to the addition of anti-TGFα or anti-HB-EGF mAbs (each at 30 μg/ml), or a mixture of both mAbs (each at 15 μg/ml). Cell proliferation was determined in hexaplicates after 96 hours using the MTT method. Averages±S.D. are shown. The experiment was repeated twice. […] Female nude mice (6 week old) were inoculated subcutaneously with 2×10^6 BxPC3 cells. […]
(§2) FIGS. 5A-B depict effective inhibition of human pancreatic cancer cell growth (in vitro and in vivo) by a combination of two mAbs and chemotherapy. […] Of note, body weight monitoring detected no consistent trends and differences other than a slow gain of weight (data not shown).
BxPC3 pancreatic tumor cells were plated on 96-well plates (2,000 cells/well), in hexaplicates. […] Proliferation was measured after 24, 48 and 72 hours using the MTT method as was previously described [Mossmann T. J., Immunol Methods. […] Absorbance was determined at 570 nm.
BxPC3 pancreatic tumor cells were plated on 96-well plates (2,000 cells/well), in hexaplicates. […] Proliferation was measured after 24, 48 and 72 hours using the MTT method. […] Absorbance was determined at 570 nm.

BxPC3 xenografts = assay: Anti-tumor activity in nude mice, BxPC3 xenografts; assay type: in vivo; conditions: two intraperitoneal injections (days 16 and 21), 150 mg/kg body weight
Experimental: as §1, §2
(§3) Female atymic NCr-nude mice (6 week old; Harlen, Israel) were inoculated subcutaneously with 2×10^6 human cancer cells. […] Tumor volumes were monitored twice a week, and body weights were measured once a week.
as §3

| Molecule | ability to induce EGFR phosphorylation on tyrosine residues [1] | growth inhibition of cultured BxPC3 cells (MTT), gemcitabine alone [2] | inhibition of tumor growth, BxPC3 xenografts (BxPC3 xenografts) |
| --- | --- | --- | --- |
| TGFα: EGF-like domain of TGFα expressed in bacteria as thioredoxin (TRX) fusion protein, used as immunogen | functionally active conformation |  |  |
| Nc1ccn([C@@H]2O[C@H](CO)[C@@H](O)C2(F)F)c(=O)n1 [gemcitabine] |  | growth inhibitory effect | more than 85% |
| B1 | functionally active conformation |  |  |
